Results from PMC3577938 (Organic & biomolecular chemistry, 2013).

Columns and labels:
[1] = test system: human TLR7 or human TLR8; format: cell-based; settings: for agonistic activity (in words): primary TLR8/TLR7 reporter gene assays, receptor not given; for TLR8 versus TLR7 selectivity (in words): primary reporter gene screens
[2] = molecular target: T1, human TLR8 (Homo sapiens, UniProt Q9NR97); assay: Human TLR8-specific reporter gene assay; format: cell-based; settings: for Agonistic Activity (μM) TLR8: EC50 in human TLR8-specific reporter gene assay, Inactive = EC50 >100 μM
T1 sequence (Q9NR97 27-1041): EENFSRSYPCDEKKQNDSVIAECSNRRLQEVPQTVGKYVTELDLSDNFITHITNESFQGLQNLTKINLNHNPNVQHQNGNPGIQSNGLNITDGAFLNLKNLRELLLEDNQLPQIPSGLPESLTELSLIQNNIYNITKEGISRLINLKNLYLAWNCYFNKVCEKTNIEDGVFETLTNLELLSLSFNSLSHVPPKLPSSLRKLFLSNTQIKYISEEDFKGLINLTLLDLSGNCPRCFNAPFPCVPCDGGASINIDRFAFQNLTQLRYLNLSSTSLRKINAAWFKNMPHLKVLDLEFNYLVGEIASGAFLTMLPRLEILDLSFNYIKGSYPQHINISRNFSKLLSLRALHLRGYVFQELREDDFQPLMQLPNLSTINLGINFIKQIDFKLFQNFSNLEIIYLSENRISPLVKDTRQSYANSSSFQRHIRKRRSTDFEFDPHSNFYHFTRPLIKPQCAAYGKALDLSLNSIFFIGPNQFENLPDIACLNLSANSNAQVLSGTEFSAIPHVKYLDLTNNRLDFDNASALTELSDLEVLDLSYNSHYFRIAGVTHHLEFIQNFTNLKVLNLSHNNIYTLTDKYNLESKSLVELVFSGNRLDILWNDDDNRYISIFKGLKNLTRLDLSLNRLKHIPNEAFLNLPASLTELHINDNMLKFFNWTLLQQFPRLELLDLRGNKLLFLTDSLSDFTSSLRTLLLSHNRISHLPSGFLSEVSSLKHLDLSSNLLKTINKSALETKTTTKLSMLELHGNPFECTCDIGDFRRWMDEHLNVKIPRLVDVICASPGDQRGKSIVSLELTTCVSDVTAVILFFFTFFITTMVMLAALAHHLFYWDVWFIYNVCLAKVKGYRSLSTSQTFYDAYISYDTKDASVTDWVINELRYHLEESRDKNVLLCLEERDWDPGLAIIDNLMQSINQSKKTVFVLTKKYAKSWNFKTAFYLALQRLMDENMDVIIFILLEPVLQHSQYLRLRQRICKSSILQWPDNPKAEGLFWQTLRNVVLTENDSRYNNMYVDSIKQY

[3] = molecular target: T2, human TLR7 (Homo sapiens, UniProt Q9NYK1); assay: Human TLR7-specific reporter gene assay; format: cell-based; settings: EC50 in human TLR7-specific reporter gene assay; Inactive = EC50 >100 μM
T2 sequence (Q9NYK1 27-1049): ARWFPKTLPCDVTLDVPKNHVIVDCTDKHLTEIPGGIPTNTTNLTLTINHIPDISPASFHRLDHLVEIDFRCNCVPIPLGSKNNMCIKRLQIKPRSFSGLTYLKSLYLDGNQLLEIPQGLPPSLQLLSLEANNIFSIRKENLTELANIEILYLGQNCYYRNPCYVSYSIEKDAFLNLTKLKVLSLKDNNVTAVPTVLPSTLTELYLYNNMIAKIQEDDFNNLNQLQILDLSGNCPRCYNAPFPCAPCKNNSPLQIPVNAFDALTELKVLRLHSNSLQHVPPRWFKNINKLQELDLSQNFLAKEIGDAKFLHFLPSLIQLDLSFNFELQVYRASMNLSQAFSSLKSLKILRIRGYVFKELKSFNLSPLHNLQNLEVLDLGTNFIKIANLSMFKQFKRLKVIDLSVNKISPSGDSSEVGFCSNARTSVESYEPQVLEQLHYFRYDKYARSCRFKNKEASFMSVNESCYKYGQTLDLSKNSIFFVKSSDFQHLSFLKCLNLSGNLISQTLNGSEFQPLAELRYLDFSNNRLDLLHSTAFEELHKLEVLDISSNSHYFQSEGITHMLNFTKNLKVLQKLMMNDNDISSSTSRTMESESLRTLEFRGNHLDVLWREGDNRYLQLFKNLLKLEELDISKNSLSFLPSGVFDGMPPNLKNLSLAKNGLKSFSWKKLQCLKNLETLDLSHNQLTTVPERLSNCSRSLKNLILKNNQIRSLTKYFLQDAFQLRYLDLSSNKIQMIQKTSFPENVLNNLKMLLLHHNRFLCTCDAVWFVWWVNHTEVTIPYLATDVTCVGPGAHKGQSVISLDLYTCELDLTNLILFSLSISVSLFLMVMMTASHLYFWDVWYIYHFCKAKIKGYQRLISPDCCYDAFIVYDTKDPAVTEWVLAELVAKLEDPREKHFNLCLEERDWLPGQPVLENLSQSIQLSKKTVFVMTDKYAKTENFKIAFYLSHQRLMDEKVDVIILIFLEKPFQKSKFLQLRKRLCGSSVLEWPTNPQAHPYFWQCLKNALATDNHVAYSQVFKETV

[4] = test system: human peripheral blood mononuclear cells (hPBMC); assay: Cytokine induction in human PBMCs; format: cell-based; settings: human PBMCs stimulated 12 h
[5] = test system: New Zealand White rabbits; assay: Rabbit immunization with bovine α-lactalbumin and antigen-specific ELISA; format: in vivo; settings: compared with 8c

Agonistic Activity (μM) TLR8 [2]	Agonistic Activity (μM) TLR7 [3]	TLR8 versus TLR7 selectivity (in words) [1]	TLR8-agonistic potency/activity (in words) ([2]; hTLR8 reporter gene assay)	SMILES	agonistic activity (in words) [1]	proinflammatory cytokine induction in hPBMCs (in words) [4]	consistency of adjuvanticity (confidence intervals of antibody titers) [5]
Inactive	Inactive			CCCCc1nc2c(NC(C)=O)nc3ccccc3c2s1 [Compound 18b, N-(2-butylthiazolo[4,5-c]quinolin-4-yl)acetamide]	selective loss of activity		
Inactive	Inactive			CCCCCCCCCCCCCCCC(=O)Nc1nc2ccccc2c2sc(CCC)nc12 [Compound 15h, N-(2-propylthiazolo[4,5-c]quinolin-4-yl)palmitamide]	inactive		
Inactive	Inactive			CCCC(=O)Nc1ccc2nc(N)c3nc(CCC)sc3c2c1 [Compound 13b, N-(4-amino-2-propylthiazolo[4,5-c]quinolin-8-yl)butyramide]	inactive		
Inactive	Inactive			CCCc1nc2c(NC(=O)c3ccccc3)nc3ccccc3c2s1 [Compound 15i, N-(2-propylthiazolo[4,5-c]quinolin-4-yl)benzamide]	entirely inactive		
Inactive	Inactive			CCCCCCCC(=O)Nc1nc2ccccc2c2sc(CCC)nc12 [Compound 15g, N-(2-propylthiazolo[4,5-c]quinolin-4-yl)octanamide]	inactive		
			comparable to that of 8c	CCCc1nc2c(NC=O)nc3ccccc3c2s1 [Compound 15d, N-(2-propylthiazolo[4,5-c]quinolin-4-yl)formamide]	active	near-complete loss of activity	
Inactive	Inactive			CCCCCCNc1ccc2nc(N)c3nc(CCC)sc3c2c1 [Compound 13a, N^8-hexyl-2-propylthiazolo[4,5-c]quinoline-4,8-diamine]	inactive		
Inactive	Inactive			CCCCNc1nc2ccccc2c2sc(CCC)nc12 [Compound 15a, N-butyl-2-propylthiazolo[4,5-c]quinolin-4-amine]	devoid of any agonistic activity		
Inactive	Inactive			CCCc1nc2c(NC(N)=O)nc3ccccc3c2s1 [Compound 15q, 1-(2-propylthiazolo[4,5-c]quinolin-4-yl)urea]	inactive		
	Inactive			CCCC(=O)Nc1nc2ccccc2c2sc(CCC)nc12 [Compound 15f, N-(2-propylthiazolo[4,5-c]quinolin-4-yl)butyramide]	active		
Inactive	Inactive			CCCCCCNc1nc2ccccc2c2sc(CCC)nc12 [Compound 15b, N-hexyl-2-propylthiazolo[4,5-c]quinolin-4-amine]	devoid of any agonistic activity		

More lines, now with the values behind:

SMILES	Agonistic Activity (μM) TLR8 [2]	Agonistic Activity (μM) TLR7 [3]	TLR8 versus TLR7 selectivity (in words) [1]	TLR8-agonistic potency/activity (in words) ([2]; hTLR8 reporter gene assay)	agonistic activity (in words) [1]	proinflammatory cytokine induction in hPBMCs (in words) [4]	consistency of adjuvanticity (confidence intervals of antibody titers) [5]
CC(C)Cc1nc2c(N)nc3ccccc3c2s1 [Compound 8j, 2-isobutylthiazolo[4,5-c]quinolin-4-amine]			substantially more TLR8-selective		well tolerated	inferior in their cytokine induction profiles	
CC[C@H](C)Cc1nc2c(N)nc3ccccc3c2s1 [Compound 8o, (S)-2-(2-methylbutyl)thiazolo[4,5-c]quinolin-4-amine]			substantially more TLR8-selective		active	inferior in their cytokine induction profiles	
CC[C@H](C)c1nc2c(N)nc3ccccc3c2s1 [Compound 8n, (S)-2-(sec-butyl)thiazolo[4,5-c]quinolin-4-amine]			substantially more TLR8-selective		well tolerated	inferior in their cytokine induction profiles	
CCCc1nc2c(N)nc3ccc([N+](=O)[O-])cc3c2s1 [Compound 9, 8-nitro-2-propylthiazolo[4,5-c]quinolin-4-amine]	Inactive	Inactive			inactive		
CCCCc1nc2c(N)nc3ccccc3c2s1 [Compound 8d, 2-butylthiazolo[4,5-c]quinolin-4-amine]							greater consistency and uniformity
CC(C)CCc1nc2c(N)nc3ccccc3c2s1 [Compound 8l, 2-isopentylthiazolo[4,5-c]quinolin-4-amine]	Inactive	Inactive			entirely inactive		
CC(C)(C)Cc1nc2c(N)nc3ccccc3c2s1 [Compound 8k, 2-neopentylthiazolo[4,5-c]quinolin-4-amine]	Inactive	Inactive			inactive		
CC(C)(C)CCc1nc2c(N)nc3ccccc3c2s1 [Compound 8m, 2-(3,3-dimethylbutyl)thiazolo[4,5-c]quinolin-4-amine]	Inactive	Inactive			inactive		
CCCc1nc2c(NC(=N)N)nc3ccccc3c2s1 [Compound 17, 1-(2-propylthiazolo[4,5-c]quinolin-4-yl)guanidine]	Inactive	Inactive			inactive		
CCCc1nc2c(N)nc3ccc(Br)cc3c2s1 [Compound 14, 8-bromo-2-propylthiazolo[4,5-c]quinolin-4-amine]	Inactive	Inactive			inactive		
